The target of test [1] is T1, Ephrin type-B receptor 2 (Homo sapiens) (UniProt P29323).
T1 sequence (whole entry): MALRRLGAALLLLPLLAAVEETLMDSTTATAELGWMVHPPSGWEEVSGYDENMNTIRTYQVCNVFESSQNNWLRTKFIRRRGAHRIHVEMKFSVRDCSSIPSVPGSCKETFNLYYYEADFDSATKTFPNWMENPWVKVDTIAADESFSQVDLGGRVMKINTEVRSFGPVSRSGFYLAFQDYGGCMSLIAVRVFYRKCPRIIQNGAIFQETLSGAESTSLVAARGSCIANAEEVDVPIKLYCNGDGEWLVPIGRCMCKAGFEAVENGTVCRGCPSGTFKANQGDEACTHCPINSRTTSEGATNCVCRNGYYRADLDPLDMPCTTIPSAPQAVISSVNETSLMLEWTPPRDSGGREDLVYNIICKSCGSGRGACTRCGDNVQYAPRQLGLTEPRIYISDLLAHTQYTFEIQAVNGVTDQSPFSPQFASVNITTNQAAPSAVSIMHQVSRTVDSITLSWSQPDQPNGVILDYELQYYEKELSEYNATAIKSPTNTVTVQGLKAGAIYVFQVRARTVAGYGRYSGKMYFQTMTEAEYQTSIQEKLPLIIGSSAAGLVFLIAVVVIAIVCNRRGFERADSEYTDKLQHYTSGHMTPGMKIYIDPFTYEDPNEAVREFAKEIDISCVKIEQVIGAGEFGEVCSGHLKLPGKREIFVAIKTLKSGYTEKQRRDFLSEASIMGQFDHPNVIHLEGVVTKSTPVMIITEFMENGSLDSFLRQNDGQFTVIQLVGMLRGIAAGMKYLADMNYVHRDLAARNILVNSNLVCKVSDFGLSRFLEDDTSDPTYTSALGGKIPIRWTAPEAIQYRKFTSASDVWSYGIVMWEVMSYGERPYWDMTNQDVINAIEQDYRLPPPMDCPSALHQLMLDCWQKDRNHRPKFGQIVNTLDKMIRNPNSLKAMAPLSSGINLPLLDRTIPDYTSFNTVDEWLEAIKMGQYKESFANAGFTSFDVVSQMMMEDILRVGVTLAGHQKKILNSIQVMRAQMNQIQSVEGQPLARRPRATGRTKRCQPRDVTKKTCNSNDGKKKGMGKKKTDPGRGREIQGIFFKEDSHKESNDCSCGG
The experiment in a line: Selectivity interaction (Ambit KINOMEscan and KiNATiv profiling in Jurkat cells) EUB0000090b EPHB2. In kind it is cell-based. As to conditions: at 1 µM.

For test [2], the target named is Dual specificity tyrosine-phosphorylation-regulated kinase 1B (Homo sapiens, UniProt Q9Y463). Nature of the test: Selectivity interaction (SelectScreen profiling (Invitrogen)) EUB0000607a DYRK1B. As to conditions: at 2 µM.
Test [3] has as its target LIM domain kinase 2 (Homo sapiens) (UniProt P53671). As to conditions: at 10 µM.
The target of another test is Insulin receptor (Homo sapiens, UniProt P06213). Nature of the test: Selectivity interaction (KinomeScan (DiscoverX)) EUB0000666a INSR. As to conditions: at 10 µM.
Test [4] deals with T2, Mitogen-activated protein kinase kinase kinase 2 (Homo sapiens) (UniProt Q9Y2U5).
T2 sequence (whole entry): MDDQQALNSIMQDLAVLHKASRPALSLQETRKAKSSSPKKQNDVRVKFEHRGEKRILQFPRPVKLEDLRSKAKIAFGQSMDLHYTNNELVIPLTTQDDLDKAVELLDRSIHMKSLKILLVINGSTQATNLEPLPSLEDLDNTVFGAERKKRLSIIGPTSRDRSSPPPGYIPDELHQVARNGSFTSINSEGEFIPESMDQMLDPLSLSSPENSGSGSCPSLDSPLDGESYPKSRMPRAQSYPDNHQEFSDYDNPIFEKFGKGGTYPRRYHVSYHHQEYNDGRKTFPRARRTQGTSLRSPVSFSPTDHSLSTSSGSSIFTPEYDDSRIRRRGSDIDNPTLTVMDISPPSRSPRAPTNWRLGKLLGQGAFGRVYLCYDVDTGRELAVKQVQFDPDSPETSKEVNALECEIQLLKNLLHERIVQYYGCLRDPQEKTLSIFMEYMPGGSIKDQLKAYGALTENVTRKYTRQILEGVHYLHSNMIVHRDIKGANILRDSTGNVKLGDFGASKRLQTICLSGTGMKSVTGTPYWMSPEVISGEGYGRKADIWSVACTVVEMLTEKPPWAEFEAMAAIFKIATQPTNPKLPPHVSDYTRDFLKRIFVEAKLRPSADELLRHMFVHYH
The experiment in a line: Selectivity interaction (ActivX KiNativ screen (kinase selectivity in THP-1 cell lysates)) EUB0000639a MAP3K2. As to conditions: lysate, at 1 µM. The class given is subcellular.

The target in test [5] is PAS domain-containing serine/threonine-protein kinase (Homo sapiens) (UniProt Q96RG2). The experiment in a line: Selectivity interaction (Kinase panel (Invitrogen)) EUB0000639a PASK. As to conditions: at 200 nM.
Test [6] has as its target Serine/threonine-protein kinase MARK2 (Homo sapiens) (UniProt Q7KZI7). Nature of the test: Selectivity interaction (ActivX KiNativ screen (kinase selectivity in THP-1 cell lysates)) EUB0000639a MARK2. As to conditions: lysate, at 0.2 µM. In kind it is subcellular.
In test [7] the test system is Epidermal growth factor receptor (Homo sapiens), P00533 [UNDEFINED MUTATION]. The experiment in a line: Selectivity interaction (KinomeScan (DiscoverX)) EUB0001049a EGFR. As to conditions: at 1 µM.
Test [8] addresses Cyclin-dependent kinase 17 (Homo sapiens) (UniProt Q00537). The experiment in a line: Selectivity interaction (KinomeScan (DiscoverX)) EUB0000695a CDK17. As to conditions: at 100 nM.
For test [9], the target named is P2Y purinoceptor 2 (Homo sapiens) (UniProt P41231). Nature of the test: Selectivity interaction (Eurofins CEREP Diversity Profile (receptors and ion channels)) EUB0000279b P2RY2. As to conditions: at 10 µM.
The target of test [10] is T3, Myotonin-protein kinase (Homo sapiens) (UniProt Q09013).
T3 sequence (whole entry): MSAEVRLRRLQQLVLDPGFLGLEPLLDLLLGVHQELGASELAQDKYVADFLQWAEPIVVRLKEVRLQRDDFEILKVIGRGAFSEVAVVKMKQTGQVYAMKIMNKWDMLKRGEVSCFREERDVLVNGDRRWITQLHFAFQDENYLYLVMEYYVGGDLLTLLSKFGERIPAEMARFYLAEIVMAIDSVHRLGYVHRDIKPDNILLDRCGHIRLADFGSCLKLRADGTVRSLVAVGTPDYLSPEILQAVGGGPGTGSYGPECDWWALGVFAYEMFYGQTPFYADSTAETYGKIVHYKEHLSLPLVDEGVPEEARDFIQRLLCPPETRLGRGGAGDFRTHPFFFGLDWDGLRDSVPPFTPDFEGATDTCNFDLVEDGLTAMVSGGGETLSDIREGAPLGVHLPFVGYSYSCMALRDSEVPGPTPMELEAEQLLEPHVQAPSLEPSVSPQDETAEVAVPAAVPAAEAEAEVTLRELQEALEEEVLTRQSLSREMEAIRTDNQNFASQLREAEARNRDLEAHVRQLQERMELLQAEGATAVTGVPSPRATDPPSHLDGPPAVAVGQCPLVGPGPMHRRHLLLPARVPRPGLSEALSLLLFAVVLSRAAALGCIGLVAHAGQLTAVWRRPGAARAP
The experiment in a line: Selectivity interaction (KinomeScan (DiscoverX)) EUB0000618a DMPK. As to conditions: at 10 µM.

Chain of Serine/threonine-protein kinase MARK2 (Homo sapiens) (Q7KZI7 whole entry): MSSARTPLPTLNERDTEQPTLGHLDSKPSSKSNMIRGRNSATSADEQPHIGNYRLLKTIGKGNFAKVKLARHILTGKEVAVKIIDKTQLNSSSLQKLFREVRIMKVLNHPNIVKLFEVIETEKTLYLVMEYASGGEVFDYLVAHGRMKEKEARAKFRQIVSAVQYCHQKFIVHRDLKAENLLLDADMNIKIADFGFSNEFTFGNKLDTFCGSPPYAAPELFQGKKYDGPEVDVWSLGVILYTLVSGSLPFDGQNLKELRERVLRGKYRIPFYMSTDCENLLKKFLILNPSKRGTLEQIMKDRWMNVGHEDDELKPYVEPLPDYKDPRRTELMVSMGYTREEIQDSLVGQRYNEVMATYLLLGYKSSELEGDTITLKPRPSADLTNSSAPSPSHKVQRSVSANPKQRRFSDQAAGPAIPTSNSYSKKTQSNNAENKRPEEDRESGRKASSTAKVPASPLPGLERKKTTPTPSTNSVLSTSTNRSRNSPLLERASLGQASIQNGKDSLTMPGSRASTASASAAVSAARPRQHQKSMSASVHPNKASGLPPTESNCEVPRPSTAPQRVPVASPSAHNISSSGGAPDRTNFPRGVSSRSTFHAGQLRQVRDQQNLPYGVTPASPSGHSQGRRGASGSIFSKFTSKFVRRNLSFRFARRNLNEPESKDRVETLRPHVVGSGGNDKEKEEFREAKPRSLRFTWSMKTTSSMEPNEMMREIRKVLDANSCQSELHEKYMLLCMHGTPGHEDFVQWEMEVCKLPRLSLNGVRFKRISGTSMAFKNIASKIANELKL
Chain of PAS domain-containing serine/threonine-protein kinase (Homo sapiens) (Q96RG2 whole entry, the tested form may be a part): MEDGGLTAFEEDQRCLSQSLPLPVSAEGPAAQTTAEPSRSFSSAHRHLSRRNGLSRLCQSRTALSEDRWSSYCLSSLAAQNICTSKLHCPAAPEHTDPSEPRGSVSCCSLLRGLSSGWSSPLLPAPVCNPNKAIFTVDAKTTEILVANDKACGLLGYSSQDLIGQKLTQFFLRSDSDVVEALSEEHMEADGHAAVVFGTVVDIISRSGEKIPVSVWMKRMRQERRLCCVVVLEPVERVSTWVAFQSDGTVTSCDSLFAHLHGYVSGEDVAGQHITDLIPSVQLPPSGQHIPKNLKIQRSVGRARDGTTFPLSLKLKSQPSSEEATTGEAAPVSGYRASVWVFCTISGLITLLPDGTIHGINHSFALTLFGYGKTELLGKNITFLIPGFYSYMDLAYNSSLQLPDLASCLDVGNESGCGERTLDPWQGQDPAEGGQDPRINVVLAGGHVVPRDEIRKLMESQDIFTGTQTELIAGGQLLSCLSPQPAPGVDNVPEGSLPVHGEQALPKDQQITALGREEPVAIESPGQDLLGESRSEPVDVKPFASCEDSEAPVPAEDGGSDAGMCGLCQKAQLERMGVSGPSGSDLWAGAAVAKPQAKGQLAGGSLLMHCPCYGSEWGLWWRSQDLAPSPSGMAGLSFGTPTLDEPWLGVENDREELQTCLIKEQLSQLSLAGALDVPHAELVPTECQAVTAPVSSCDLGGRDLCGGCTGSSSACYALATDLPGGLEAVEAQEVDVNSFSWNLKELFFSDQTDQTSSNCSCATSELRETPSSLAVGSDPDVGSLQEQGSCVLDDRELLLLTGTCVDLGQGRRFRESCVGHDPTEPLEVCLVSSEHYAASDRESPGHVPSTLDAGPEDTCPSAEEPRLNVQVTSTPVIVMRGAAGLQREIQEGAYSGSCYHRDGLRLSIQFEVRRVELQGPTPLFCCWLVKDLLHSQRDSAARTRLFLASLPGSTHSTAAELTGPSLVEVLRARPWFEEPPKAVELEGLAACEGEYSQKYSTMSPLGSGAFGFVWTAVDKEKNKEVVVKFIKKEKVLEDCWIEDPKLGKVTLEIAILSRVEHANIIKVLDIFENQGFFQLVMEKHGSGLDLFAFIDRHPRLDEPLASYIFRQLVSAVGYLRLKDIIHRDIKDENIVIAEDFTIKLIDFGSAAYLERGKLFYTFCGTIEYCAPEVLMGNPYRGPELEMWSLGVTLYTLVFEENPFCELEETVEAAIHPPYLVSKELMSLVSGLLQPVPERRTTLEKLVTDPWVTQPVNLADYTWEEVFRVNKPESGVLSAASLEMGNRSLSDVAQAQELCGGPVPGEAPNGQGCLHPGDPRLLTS
Chain of P2Y purinoceptor 2 (Homo sapiens) (P41231 whole entry): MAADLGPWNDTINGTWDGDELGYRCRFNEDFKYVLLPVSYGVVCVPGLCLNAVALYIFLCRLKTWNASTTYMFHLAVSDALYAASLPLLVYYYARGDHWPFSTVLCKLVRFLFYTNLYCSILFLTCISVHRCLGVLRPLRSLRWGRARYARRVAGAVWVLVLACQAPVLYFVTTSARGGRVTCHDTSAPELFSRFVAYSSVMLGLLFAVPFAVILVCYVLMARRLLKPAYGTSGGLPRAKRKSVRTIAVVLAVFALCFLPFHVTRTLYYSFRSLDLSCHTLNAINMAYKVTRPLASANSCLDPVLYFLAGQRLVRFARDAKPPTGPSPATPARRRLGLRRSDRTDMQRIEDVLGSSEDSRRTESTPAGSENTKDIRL
Chain of Insulin receptor (P06213 28-758 limits assumed): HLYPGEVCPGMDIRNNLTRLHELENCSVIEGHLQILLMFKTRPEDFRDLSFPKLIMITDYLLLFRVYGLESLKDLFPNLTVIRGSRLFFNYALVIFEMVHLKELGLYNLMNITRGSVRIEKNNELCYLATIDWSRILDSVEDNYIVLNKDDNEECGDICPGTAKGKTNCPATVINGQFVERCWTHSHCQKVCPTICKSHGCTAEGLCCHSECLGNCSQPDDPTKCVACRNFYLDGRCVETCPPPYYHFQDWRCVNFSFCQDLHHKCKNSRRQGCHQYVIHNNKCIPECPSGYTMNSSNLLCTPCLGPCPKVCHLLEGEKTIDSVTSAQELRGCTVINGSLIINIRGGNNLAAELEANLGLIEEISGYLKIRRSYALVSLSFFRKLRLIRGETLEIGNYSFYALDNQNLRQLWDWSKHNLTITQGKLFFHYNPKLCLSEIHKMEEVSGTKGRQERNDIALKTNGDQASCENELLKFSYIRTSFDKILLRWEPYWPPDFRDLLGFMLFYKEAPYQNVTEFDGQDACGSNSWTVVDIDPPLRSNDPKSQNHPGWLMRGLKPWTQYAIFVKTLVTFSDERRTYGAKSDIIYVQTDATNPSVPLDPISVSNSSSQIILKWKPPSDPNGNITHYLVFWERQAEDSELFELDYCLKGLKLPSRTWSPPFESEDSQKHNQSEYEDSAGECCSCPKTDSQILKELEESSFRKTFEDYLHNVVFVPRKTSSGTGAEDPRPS
Chain of Insulin receptor (P06213 763-1382 limits assumed): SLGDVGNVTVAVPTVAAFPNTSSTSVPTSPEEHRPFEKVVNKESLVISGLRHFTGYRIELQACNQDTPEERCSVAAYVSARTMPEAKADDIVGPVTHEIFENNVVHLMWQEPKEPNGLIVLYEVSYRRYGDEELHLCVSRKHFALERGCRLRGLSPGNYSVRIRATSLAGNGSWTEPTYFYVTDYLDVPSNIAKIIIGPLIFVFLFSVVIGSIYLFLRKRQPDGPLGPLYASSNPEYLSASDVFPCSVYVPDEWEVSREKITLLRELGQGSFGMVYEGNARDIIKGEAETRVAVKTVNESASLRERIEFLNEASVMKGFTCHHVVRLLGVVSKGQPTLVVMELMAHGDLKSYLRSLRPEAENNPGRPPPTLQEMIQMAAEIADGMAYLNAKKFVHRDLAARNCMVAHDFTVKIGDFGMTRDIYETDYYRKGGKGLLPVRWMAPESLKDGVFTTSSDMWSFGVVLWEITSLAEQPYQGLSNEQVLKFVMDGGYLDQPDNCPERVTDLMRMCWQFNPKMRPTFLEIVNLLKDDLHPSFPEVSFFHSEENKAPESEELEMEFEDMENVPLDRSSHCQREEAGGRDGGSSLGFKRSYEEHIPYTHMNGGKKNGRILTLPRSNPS
Chain of Epidermal growth factor receptor (Homo sapiens), P00533 [UNDEFINED MUTATION] (P00533 whole entry, looked up, change not shown): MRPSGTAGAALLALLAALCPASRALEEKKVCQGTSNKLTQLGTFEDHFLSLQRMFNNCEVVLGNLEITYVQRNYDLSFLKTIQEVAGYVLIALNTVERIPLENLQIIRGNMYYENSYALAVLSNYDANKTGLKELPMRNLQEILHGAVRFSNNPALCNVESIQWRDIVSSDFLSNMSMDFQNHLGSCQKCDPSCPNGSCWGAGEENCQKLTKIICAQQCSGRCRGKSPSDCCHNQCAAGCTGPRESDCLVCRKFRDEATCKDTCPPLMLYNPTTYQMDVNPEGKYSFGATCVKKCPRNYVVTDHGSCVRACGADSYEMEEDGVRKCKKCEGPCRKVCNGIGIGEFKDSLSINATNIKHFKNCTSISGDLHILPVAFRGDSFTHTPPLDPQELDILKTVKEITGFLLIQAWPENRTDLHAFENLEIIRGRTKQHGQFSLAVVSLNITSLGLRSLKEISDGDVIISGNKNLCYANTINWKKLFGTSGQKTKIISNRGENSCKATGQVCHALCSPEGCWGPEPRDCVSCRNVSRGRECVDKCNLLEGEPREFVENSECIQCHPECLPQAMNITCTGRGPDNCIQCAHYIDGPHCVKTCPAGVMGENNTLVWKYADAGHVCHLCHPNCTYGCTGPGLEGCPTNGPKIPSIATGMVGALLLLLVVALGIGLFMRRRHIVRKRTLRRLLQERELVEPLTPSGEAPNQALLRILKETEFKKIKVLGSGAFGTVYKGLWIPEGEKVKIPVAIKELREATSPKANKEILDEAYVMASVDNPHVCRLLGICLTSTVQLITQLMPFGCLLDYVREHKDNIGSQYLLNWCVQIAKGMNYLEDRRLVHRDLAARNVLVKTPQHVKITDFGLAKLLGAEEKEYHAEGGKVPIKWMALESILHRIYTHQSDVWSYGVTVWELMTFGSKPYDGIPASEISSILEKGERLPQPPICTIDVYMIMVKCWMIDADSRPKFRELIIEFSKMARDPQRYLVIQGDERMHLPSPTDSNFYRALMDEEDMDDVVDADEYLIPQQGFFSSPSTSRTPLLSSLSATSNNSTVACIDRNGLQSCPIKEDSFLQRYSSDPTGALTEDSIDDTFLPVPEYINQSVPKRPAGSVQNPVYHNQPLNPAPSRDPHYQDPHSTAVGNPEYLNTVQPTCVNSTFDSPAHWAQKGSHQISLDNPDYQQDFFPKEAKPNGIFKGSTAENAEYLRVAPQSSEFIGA

Compound `CN(C)C/C=C/C(=O)Nc1ccc(C(=O)N2CCCC(Nc3ncc(Cl)c(-c4c[nH]c5ccccc45)n3)C2)cc1` (stereo unspecified) returned a % of control in [1] of 100%.

Regarding `CNC(=O)Nc1ccc(-c2nc(N3CC4CCC(C3)O4)c3cnn(C4CCC5(CC4)OCCO5)c3n2)cc1`, the % of inhibition in test [2] turned out to be 2%.

`Cc1cc([C@@H](C)Nc2ccccc2C(=O)O)c2nc(N3CCOCC3)cc(=O)n2c1` [AZD-6482] gave a % of control in [3] of 100%. `O=C(NOC[C@H](O)CO)c1ccc(F)c(F)c1Nc1ccc(I)cc1F` gave a % of control on Insulin receptor of 92%.

Regarding `CC[C@@H]1[C@H](F)C(=O)N[C@@H]1COc1nccc2cc(C(N)=O)c(OC)cc12` [ZIMLOVISERTIB], the % of inhibition in test [4] was -7.6%; in test [5], 7.59%; in test [6] it was 4.2%. As for `COc1cc(Nc2nc(C)cc(-c3cnn4nc(OC)ccc34)n2)cc(C(F)(F)F)c1`, in test [7], the % of control was found to be 77%. Turning to `Cc1cc(F)c(C(=O)Nc2cccc(-c3nncn3C(C)C)n2)cc1-n1cnc(C2CC2)c1`, the % of control in [8] was 100%. On to `CC(=O)c1cc(-c2ccccc2OCC2CC2)c2ncccn12`, for which the % of control in test [9] was 84%. The compound `O[C@H]1CC[C@H](Nc2ncc3nc(Nc4c(F)cc(F)cc4F)n([C@H]4CCOC4)c3n2)CC1` had a % of control in test [10] of 100%.

(Values after ChEMBL document CHEMBL5465560, “Selectivity Literature for EUbOPEN Chemogenomic Library” (2024).)
